{"source": "patent US20240139280A1", "about": "“USE OF HIF-1-ALPHA INHIBITORS IN CANCER IMMUNOTHERAPY” (ONCOC4, INC., priority 2021, published 2024)", "key": {"[1]": {"system": "E0771 tumor microenvironment", "test": "Flow cytometry of dissociated E0771 tumors (tumor cells, myeloid cells, TILs)", "type": "in vivo, C57BL/6 mice"}, "[2]": {"system": "4T1 tumor", "test": "4T1 tumor growth in mice", "type": "in vivo", "conditions": "for 4T1 tumor growth: echinomycin 0.15 mg/kg, vs vehicle", "method": "(§1) FIGS. 3A-D show the therapeutic effects of echinomycin on tumor growth in immunodeficient and immunocompetent mice. FIG. 3A. Experimental design. Three murine tumor lines were tested: 4T1, E0771, or MC38. For each, immunodeficient and immunocompetent mice were inoculated (day 0), and treatment was initiated with control liposomes (vehicle) or echinomycin liposomes (LEM) on day 6, indicated by arrows in FIGS. 3B-3D. The kinetics of tumor growth were compared to deduce the role of adaptive immunity in the therapeutic effects of echinomycin. FIG. 3B. 4T1 cells (1×10^6) were transplanted into mammary fat pad of NSG and BALB/c mice, which received vehicle or echinomycin (0.15 mg/kg) (arrows). Mean tumor volumes±SEM are shown for one of two independent experiments (n=10/group). FIG. 3C. Kinetics of E0771 tumor growth. E0771 cells (0.7×10^6) were transplanted into mammary fat pad of NSG and C57BL/6 mice, which received vehicle or echinomycin (0.25 mg/kg) (arrows). Mean tumor volumes±SEM are shown for one of two independent experiments (n=5/group). FIG. 3D. Kinetics of MC38 tumor growth. MC38 cells (1×10^6) were transplanted subcutaneously into NSG and C57BL/6 mice, which received vehicle or echinomycin (0.15 mg/kg) (blue arrows). Mean tumor volumes±SEM are shown for one of two independent experiments (n=5/group).\nFIGS. 5A-D show at echinomycin potentiates the therapeutic effect of anti-CTLA-4 antibody. FIG. 5A. Experimental design. In 4T1, E0771, or MC38 syngeneic tumor models, the effects of echinomycin on tumor growth were tested in combination with anti-CTLA-4 therapy (9D9). Tumor growth kinetics in mice receiving vehicle, echinomycin, and anti-CTLA-4 (9D9) monotherapies, or anti-CTLA-4+anti-PD-1 (9D9+RMP1-14) are shown. Starting on day 6 after tumor cell inoculation, mice received vehicle or echinomycin and/or various mAbs. The mean tumor volumes±SEM are shown for each group. […]\n(§2) Tumor Models The details of each experiment are specified in the figure legends. […] Tumor volumes were calculated and reported based on the formula […], where a is the longer diameter, and b is the shorter diameter. […]"}, "[3]": {"system": "MC38 tumor", "test": "MC38 tumor growth in mice", "type": "in vivo", "conditions": "echinomycin 0.15 mg/kg", "method": "as §1, with “MC38 cells (1×10^6) were transplanted subcutaneously into NSG and C57BL/6 mice, which received vehicle or echinomycin (0.15 mg/kg) (blue arrows). Mean tumor volumes±SEM are shown for one of two independent experiments (n=5/group).” left out\nas §2"}, "[4]": {"system": "PD-L1 expression in 4T1 cells", "test": "PD-L1 expression in 4T1 cells by flow cytometry", "type": "cell-based, murine", "conditions": "normoxia, echinomycin 0.45 nM, 48 hours"}, "[5]": {"test": "Tolerability and LD50 of intravenous echinomycin in mice", "conditions": "mouse, in vivo"}, "[6]": {"system": "intestinal tissues", "test": "Ipilimumab-induced GI-irAE in human CTLA4 knockin mice (FITC-dextran, histology, PD-L1)", "protocol": "Experimental design for GI-irAE induction by Ipilimumab, with or without additional therapies. 10-day old CTLA4h/h mice received 0.1 mg of Ipilimumab on days 10, 13, 16, and 19 after birth to induce the GI-irAE phenotype, measured by FITC-dextran assay on day 32. On day 33, the mice were sacrificed for histological and immunofluorescent analysis of intestinal tissues, and flow cytometry, etc. […] Aggregate data from 4 experiments are presented. […] Starting on day 10 after birth, the mice began receiving treatment with vehicle (n=33), echinomycin (n=27), Ipilimumab (n=33), Ipilimumab+echinomycin (n=26), Ipilimumab+RMP1-14 (n=27), Ipilimumab+echinomycin+RMP1-14 (n=28), or Ipilimumab+echinomycin+XMG1.2 (n=15). Echinomycin (10 μg/kg), Ipilimumab (0.1 mg/mouse/injection), RMP1-14 (0.2 mg/mouse/injection), and XMG1.2 (0.2 mg/mouse/injection). Vehicle or echinomycin (10 μg/kg) were given once every three days for 8 doses, and mAbs (0.1 mg/mo. for Ipilimumab; 0.2 mg/mo. for RMP1-14 and XMG1.2) once every three days for 4 doses. Data collection was performed as described in (FIG. 8A). […] Serum FITC-dextran intensity shown as mean±SEM for individual mice pooled from 3 independent experiments. […] Statistics were determined by unpaired t tests (two-tailed) for group means. […] Representative H&E images from intestines of Ipilimumab-treated mice additionally treated with echinomycin (panel i), RMP1-14 (panels ii-iv), echinomycin+RMP1-14 (panels v-vi), or echinomycin+XMG1.2 (panels vii-viii). […] Representative immunofluorescence images showing relative expression of PD-L1 in jejunum of mice from different treatment groups.\nTherefore, we used intestinal permeability to orally administrated FITC-dextran and histology as the readout for irAE (FIG. 8A)."}, "[7]": {"system": "leukemia stem cells", "conditions": "Wang et al., 2011; cited from earlier work"}, "[8]": {"system": "PD-L1 expression in E0771 cells", "type": "cell-based, murine"}, "[9]": {"system": "PD-L1 in 4T1, E0771, MC38 tumors", "test": "Intratumoral PD-L1 immunofluorescence in engrafted 4T1, E0771 and MC38 tumors", "type": "in vivo, mice", "conditions": "LEM 0.25 mg/kg every other day for 5 doses; two days after final dose"}}, "data": [{"compound": "CSC1SC[C@H]2C(=O)N(C)[C@@H](C(C)C)C(=O)OC[C@@H](NC(=O)c3cnc4ccccc4n3)C(=O)N[C@@H](C)C(=O)N(C)[C@@H]1C(=O)N(C)[C@@H](C(C)C)C(=O)OC[C@@H](NC(=O)c1cnc3ccccc3n1)C(=O)N[C@@H](C)C(=O)N2C", "note": "(stereo in doubt) [echinomycin, N,N′-(2,4,12,15,17,25-hexamethyl-11,24-bis(1-methylethyl)-27-(methylthio)-3,6,10,13,16,19,23,26-octaoxo-9,22-dioxa-28-thia-2,5,12,15,18,25-hexaazabicyclo(12.12.3)nonacosane-7,20-diyl)bis(2-quinoxalinecarboxamide)]", "values": [{"measurement": "inhibition of PD-L1 on tumor cells in mice with conditional knockout of Hif1α in T cells", "setting": "[1]; Hif1α conditional knockout in T lineages", "value": "preserved"}, {"measurement": "CD3 TIL infiltration into hypoxic areas of the tumors", "setting": "[1]; echinomycin-treated mice", "value": "increase in CD3 TIL infiltration into hypoxic areas"}, {"measurement": "4T1 growth inhibition, immunocompetent vs immunodeficient mice", "setting": "[2]; BALB/c vs NSG", "value": "more significantly inhibited in immunocompetent mice than in immunodeficient mice"}, {"measurement": "4T1 tumor growth", "setting": "[2]; immunocompetent BALB/c", "value": "significantly inhibited 4T1 tumor growth"}, {"measurement": "4T1 tumor growth", "setting": "[2]; immunodeficient NSG", "value": "significantly inhibited 4T1 tumor growth"}, {"measurement": "MC38 tumor growth, combination study", "setting": "[3]; C57BL/6, mAbs 0.2 mg/mouse/injection, vs vehicle", "value": "significant inhibition of tumor growth"}, {"measurement": "MC38 tumor growth", "setting": "[3]; C57BL/6 vs NSG", "value": "all therapeutic effects required immune competence"}, {"measurement": "PD-L1 protein", "setting": "[4]", "value": "reduced PD-L1 protein"}, {"measurement": "LD50", "setting": "[5]", "value": 0.629, "unit": "mg/kg"}, {"measurement": "PD-L1 expression in the intestines", "setting": "[6]; Ipilimumab 0.1 mg/mouse/injection, echinomycin 10 μg/kg added to Ipilimumab", "value": "enhanced PD-L1 expression"}, {"measurement": "Ipilimumab-induced intestinal leakage (FITC-dextran)", "setting": "[6]; agent added to Ipilimumab (anti-PD-1 added to Ipilimumab+echinomycin)", "value": "protected against Ipilimumab-induced intestinal leakage"}, {"measurement": "H&E findings in intestines of Ipilimumab-treated mice additionally treated with the agent", "setting": "[6]; representative images, FIG. 8F panels", "value": "normal pathology"}, {"measurement": "elimination of leukemia stem cells", "setting": "[7]", "value": "effectively eliminated leukemia stem cells"}, {"measurement": "PD-L1 expression in sh-Hif1α E0771 cells", "setting": "[8]", "value": "abrogated the ability for echinomycin to decrease PD-L1 protein"}, {"measurement": "PD-L1 protein", "setting": "[8]; E0771 cells, normoxia, echinomycin 0.45 nM, 48 hours", "value": "reduced PD-L1 protein"}, {"measurement": "PD-L1 expression in sh-Scr E0771 cells", "setting": "[8]; scrambled shRNA, echinomycin 1.35 nM", "value": "inhibitory effect of echinomycin on PD-L1 expression was preserved"}, {"measurement": "intratumoral PD-L1 expression (immunofluorescence)", "setting": "[9]", "value": "marked reduction in PD-L1 expression"}]}]}
